Where “and” joins values, the source holds several entries; their conditions need not be identical. Identical values can stand only once.
CC(C)CO
Conditions | viscosity
293.15 K, 101 kPa | 4.02 mPa·s and 4.009 mPa·s
293.15 K, 101.33 kPa | 4.008 mPa·s and 2.75 mPa·s
297 K, 101 kPa | 3.569 mPa·s
298.15 K, 101.3 kPa | 3.247 mPa·s and 3.256 mPa·s
298.15 K, 101.33 kPa | 3.537 mPa·s and 3.41 mPa·s and 3.41 mPa·s
303 K, 101 kPa | 2.943 mPa·s
303 K, 101.33 kPa | 2.58 mPa·s
303.15 K, 100 kPa | 2.938 mPa·s and 2.781 mPa·s
303.15 K, 101.3 kPa | 2.745 mPa·s and 2.743 mPa·s and 2.842 mPa·s
303.15 K, 101.33 kPa | 2.54 mPa·s and 2.982 mPa·s and 2.1 mPa·s
308 K, 101 kPa | 2.261 mPa·s
308.15 K, 100 kPa | 2.487 mPa·s and 2.231 mPa·s
308.15 K, 101.33 kPa | 2.433 mPa·s
313 K, 101 kPa | 2.169 mPa·s
313.15 K, 100 kPa | 2.174 mPa·s
313.15 K, 101 kPa | 2.17 mPa·s and 2.138 mPa·s and 1.96 mPa·s
313.15 K, 101.3 kPa | 2.08 mPa·s
313.15 K, 101.33 kPa | 2.186 mPa·s and 1.65 mPa·s
318.15 K, 101 kPa | 1.751 mPa·s and 1.834 mPa·s
318.15 K, 101.33 kPa | 1.804 mPa·s
323 K, 101 kPa | 1.632 mPa·s
323.15 K, 100 kPa | 1.637 mPa·s
323.15 K, 101.33 kPa | 1.663 mPa·s

CCCCCCCCCCCCc1ccccc1
102 kPa
Conditions | viscosity [mPa·s]
293.15 K | 5.47
303.15 K | 4.21
313.15 K | 3.33
323.15 K | 2.71

C=CC(=O)OC
viscosity
Conditions | 293.15 K | 298.15 K | 303.15 K | 308.15 K | 313.15 K | 318.15 K
100 kPa | 0.5038 mPa·s | 0.4602 mPa·s | 0.435 mPa·s and 0.4197 mPa·s | 0.415 mPa·s and 0.3856 mPa·s | 0.396 mPa·s and 0.355 mPa·s | 0.3276 mPa·s
101 kPa | 0.5038 mPa·s and 0.492 mPa·s and 0.502 mPa·s | – | – | – | – | 0.3276 mPa·s and 0.375 mPa·s and 0.334 mPa·s

CCCCCCCCCCCCCC(=O)OC
Conditions | viscosity [mPa·s]
323.15 K, 100 kPa | 2.301

Cc1ccccc1O
viscosity
Conditions | 293.15 K | 298.15 K | 308.15 K | 313.15 K | 318.15 K | 323.15 K
101 kPa | 9.56 mPa·s | 7.607 mPa·s and 7.608 mPa·s | – | 4.312 mPa·s and 4.238 mPa·s and 4.1 mPa·s | 3.506 mPa·s and 2.215 mPa·s | –
101.3 kPa | – | – | – | 4.243 mPa·s | – | 3.02 mPa·s
101.33 kPa | – | 7.493 mPa·s | 4.853 mPa·s | – | 3.359 mPa·s | 2.83 mPa·s

O=C1OCCO1
viscosity
Conditions | 298.15 K | 313.15 K | 323.15 K
100 kPa | – | 1.81 mPa·s and 1.917 mPa·s | 1.56 mPa·s
101.3 kPa | 2.263 mPa·s | 1.879 mPa·s | –
101.33 kPa | – | 1.93 mPa·s | –

CC(C)(C)c1ccccc1
viscosity [mPa·s]
Conditions | 293.15 K | 298.15 K | 303.15 K | 308.15 K | 313.15 K | 318.15 K | 323.15 K
100 kPa | – | 1.118 | – | 0.97 | – | 0.853 | –
102 kPa | 1.13 | – | 0.982 | – | 0.854 | – | 0.751

CCCCCCCC[P+](CC)(CC)CC.O=[N+]([O-])c1cnc[n-]1
100 kPa
Conditions | viscosity [mPa·s]
293.15 K | 398
298.15 K | 286
303.15 K | 212
308.15 K | 160
313.15 K | 124
318.15 K | 98
323.15 K | 78

CCn1cc[n+](C)c1.O=S(=O)([O-])C(F)(F)F
101 kPa
Conditions | viscosity
293.15 K | 48.6 mPa·s
298.15 K | 43.8 mPa·s and 40.44 mPa·s
303.15 K | 36.7 mPa·s and 34.02 mPa·s
308.15 K | 32.28 mPa·s
313.15 K | 26.6 mPa·s and 24.89 mPa·s
318.15 K | 21.55 mPa·s
323.15 K | 18.64 mPa·s

CCOC(=O)CC
Conditions | viscosity [mPa·s]
303.15 K, 101 kPa | 0.4833

O=C([O-])CC(O)(CC(=O)[O-])C(=O)[O-].[NH3+]CCO.[NH3+]CCO.[NH3+]CCO
101 kPa
Conditions | viscosity [mPa·s]
293.15 K | 183.9
303.15 K | 113.8
313.15 K | 67.2
323.15 K | 37.38

From the CheMixHub viscosity set
